# Measured values published in patent US5891913A, “Ophthalmic and aural compositions containing diclofenac potassium” (priority 1994, dated 1999).
# Entries after “also recorded” stand apart in the source; their conditions may differ.
# Tests used:
# uveitis = assay: Uveitis models in rabbits (all the aforementioned animal models: arachidonic acid, argon laser iris photocoagulation, paracentesis); assay type: in vivo, pigmented rabbits; settings: compared to diclofenac sodium
# Procedure: Uveitis is induced in said model by an argon laser iris photocoagulation in pigmented rabbits. Said iris photocoagulation is induced by 500 μm argon laser burns (power 750 mW, duration 0.1 sec). The inflammatory processes resulting therefrom are measured every 30 minutes after the laser induced photo-coagulation, by using the laser cell flare meter (LCFM) technique.
# In addition to the non invasive LCFM evaluation of the above mentioned animal model, an invasive evaluation is carried out. Therefore the rabbits are sacrificed one hour and in regular intervals after which said eyes have been subjected to the traumatic uveitis by photocoagulation, and the aqueous humor of said rabbit eyes is sampled. The aqueous protein levels, cell counts and prostaglandins (PGE2, PGD2, 6-keto PGF1α) which represent the degree of an inflammation are biochemically investigated and quantified.
# Another animal model is used for the induction of a traumatic uveitis. It is the induction of a uveitis by the paracentesis of the anterior chamber of the rabbit eye. In analogy to the previously described laser induced uveitis model, drugs to be tested, are again administred prior to the paracentesis challenge. […] The aqueous protein levels are again analyzed, quantified and then correlated with the degree of an inflammation.
# [1] = Lens penetration and ocular distribution of 14-C labelled eye drops after multiple topical ocular administration; assay type: in vivo, chinchilla pigmented rabbits
# Procedure: In a first animal model, the ocular distribution and lens penetration of diclofenac potassium and diclofenac sodium is determined after multiple topical ocular administration of a corresponding eye drop composition. […] At regular intervals post-instillation (0.5, 1.5, 2.0 hours), the animals are sacrificed and both eyes are removed. Said eyes are microdissected and the ocular distribution of the radioactivity is measured by a standard scintillation beta counting method.
# Lens penetration and ocular distribution of diclofenac potassium and diclofenac sodium were determined after multiple topical ocular administration of corresponding 14-C labelled eye drop composition into the conjunctival sac of the right eye of pigmented rabbits.
# At 0.5, 1.5, 2 hours post-instillation, 5 animals for each time-point and each treatment group were sacrificed and the radioactivity content (in ng-Eq/g of structure) in the cornea, aqueous humor, iris-ciliary body, vitreous, whole blood and plasma was measured. At 2 hours post-instillation, the left eyes were removed and the ocular distribution was measured by a standard scintillation beta counting method. The right lenses were used for autoradiography.
# The areas under the curve (AUC: ng-Eq/g of structure versus time) were calculated and statistically compared.
# [2] = system: arachidonic acid induced uveitis; assay: Arachidonic acid induced uveitis, aqueous flare by laser cell flare meter (LCFM)
# eye = assay: Pharmacological studies: topical (ocular) tolerance, efficacy, onset and duration of action
structure (smiles),measurement,setting,value
"O=C(O)Cc1ccccc1Nc1c(Cl)cccc1Cl [diclofenac potassium, potassium 2-[(2,6-dichlorophenyl)amino]-phenyl acetate]",efficacy in all the aforementioned animal models (in words),uveitis,better efficacy
same,ocular penetration / levels of radioactivity (in words),"[1]; in comparison to diclofenac sodium, acetate",much superior; also recorded: clearly displayed higher levels of radioactivity
same,"ocular distribution, order of concentrations (in words)","[1]; rabbit, in vivo","highest concentrations are found in the cornea, and in descending order in the aqueous humor, in the iris ciliary body and in the vitreous"
same,efficacy / degree of inflammation (in words),[2]; 0.05% diclofenac potassium versus 0.1% diclofenac sodium,almost totally suppressed
same,fold efficacy of diclofenac sodium,[2]; taking into account 0.1% versus 0.05% drug concentration,more than five fold
same,duration of action (in words),eye; e.g. in the eye,long lasting duration of action
same,onset of action (in words),eye; e.g. in the eye,surprisingly short onset of action
same,"topical tolerance, e.g. ocular tolerance, and efficacy (in words)",eye; in comparison to diclofenac sodium,"much better topical tolerance, e.g. ocular tolerance, and efficacy"
